From paper PMC3783656 (Bioorganic & medicinal chemistry letters, 2013)
Converted amounts (≈) assume the structure as drawn.

Key:
[1] = test system: human melanoma A375 cell line; experiment: MTT assay against A375 melanoma cells; type: cell-based; conditions: read-out: MTT assay A375 EC50; human A375 melanoma cell line
FLT3 (K663Q) = FLT3 (K663Q) (Homo sapiens, UniProt P36888, K663Q); experiment: KINOMEscan kinase binding; conditions: 10 μM; % of kinase remaining bound to bead-bound ligand
MELK = MELK (Homo sapiens, UniProt Q14680); experiment: KINOMEscan kinase binding; conditions: 10 μM; % of kinase remaining bound to bead-bound ligand
PRKCQ = PRKCQ (Homo sapiens, UniProt Q04759); experiment: KINOMEscan kinase binding; conditions: 10 μM; % of kinase remaining bound to bead-bound ligand
BMP2K = BMP2K (Homo sapiens, UniProt Q9NSY1); experiment: KINOMEscan kinase binding; conditions: 10 μM; % of kinase remaining bound to bead-bound ligand
LATS2 = LATS2 (Homo sapiens, UniProt Q9NRM7); experiment: KINOMEscan kinase binding; conditions: 10 μM; % of kinase remaining bound to bead-bound ligand
FLT3 [2] = biological target: T1, FLT3 (Homo sapiens, UniProt P36888); experiment: KINOMEscan kinase binding; conditions: 10 μM; % of kinase remaining bound to bead-bound ligand
T1 sequence (P36888 27-993): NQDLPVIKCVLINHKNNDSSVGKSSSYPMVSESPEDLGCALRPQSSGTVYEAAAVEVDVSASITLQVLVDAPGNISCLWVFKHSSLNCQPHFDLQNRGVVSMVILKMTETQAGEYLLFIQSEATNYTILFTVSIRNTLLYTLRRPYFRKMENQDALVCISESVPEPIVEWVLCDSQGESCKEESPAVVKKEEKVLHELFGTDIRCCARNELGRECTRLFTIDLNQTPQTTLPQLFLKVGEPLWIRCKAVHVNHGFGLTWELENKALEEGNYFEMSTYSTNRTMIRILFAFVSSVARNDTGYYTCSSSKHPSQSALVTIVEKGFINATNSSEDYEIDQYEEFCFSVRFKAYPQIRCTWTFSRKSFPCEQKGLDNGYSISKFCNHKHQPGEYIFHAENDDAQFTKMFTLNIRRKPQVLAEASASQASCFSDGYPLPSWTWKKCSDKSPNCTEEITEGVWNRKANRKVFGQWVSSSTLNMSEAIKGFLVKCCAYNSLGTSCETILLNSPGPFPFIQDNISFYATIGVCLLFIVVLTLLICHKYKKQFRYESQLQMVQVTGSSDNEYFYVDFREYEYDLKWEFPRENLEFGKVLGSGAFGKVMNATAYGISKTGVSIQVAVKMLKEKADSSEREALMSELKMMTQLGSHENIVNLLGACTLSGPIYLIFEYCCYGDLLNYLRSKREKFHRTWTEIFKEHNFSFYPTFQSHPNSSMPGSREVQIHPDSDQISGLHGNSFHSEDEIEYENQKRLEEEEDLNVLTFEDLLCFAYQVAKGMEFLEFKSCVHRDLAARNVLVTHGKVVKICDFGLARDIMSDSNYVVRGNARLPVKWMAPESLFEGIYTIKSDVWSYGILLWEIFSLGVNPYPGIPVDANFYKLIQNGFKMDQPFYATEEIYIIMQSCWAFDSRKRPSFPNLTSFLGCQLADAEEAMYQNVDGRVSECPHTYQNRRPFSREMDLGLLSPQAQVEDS

FLT3 (ITD) = experiment: KINOMEscan kinase binding; conditions: 10 μM; % of kinase remaining bound to bead-bound ligand
CDK7 = CDK7 (Homo sapiens, UniProt P50613); experiment: KINOMEscan kinase binding; conditions: 10 μM; % of kinase remaining bound to bead-bound ligand
CDK13 = CDK13 (Homo sapiens, UniProt Q14004); experiment: KINOMEscan kinase binding; conditions: 10 μM; % of kinase remaining bound to bead-bound ligand
CSNK1A1L = CSNK1A1L (Homo sapiens, UniProt Q8N752); experiment: KINOMEscan kinase binding; conditions: 10 μM; % of kinase remaining bound to bead-bound ligand
RIOK3 = RIOK3 (Homo sapiens, UniProt O14730); experiment: KINOMEscan kinase binding; conditions: 10 μM; % of kinase remaining bound to bead-bound ligand
TAOK3 = TAOK3 (Homo sapiens, UniProt Q9H2K8); experiment: KINOMEscan kinase binding; conditions: 10 μM; % of kinase remaining bound to bead-bound ligand
Mouse PK studies = type: in vivo; conditions: IV dosing, 1 mg/kg, 10/10/80 DMSO/Tween/water
CDK4/cyclin D3 = CDK4/cyclin D3 (Homo sapiens, UniProt P11802); experiment: KINOMEscan kinase binding; conditions: 10 μM; % of kinase remaining bound to bead-bound ligand
442 kinases = experiment: DiscoverRX KINOMEscan analysis of 442 kinases; type: binding; conditions: 10 μM, KINOMEscan of 442 kinases
MARK2 = MARK2 (Homo sapiens, UniProt Q7KZI7); experiment: KINOMEscan kinase binding; conditions: 10 μM; % of kinase remaining bound to bead-bound ligand
CDK4/cyclin D1 = CDK4/cyclin D1 (Homo sapiens, UniProt P11802); experiment: KINOMEscan kinase binding; conditions: 10 μM; % of kinase remaining bound to bead-bound ligand
FLT3 [3] = biological target: T1, FLT3; experiment: Off-target kinase inhibition, Reaction Biology Corporation; type: biochemical; conditions: read-out: IC50 for inhibition of off-target kinase FLT3; data obtained by Reaction Biology Corporation
CSNK1A1 = CSNK1A1 (Homo sapiens, UniProt P48729); experiment: KINOMEscan kinase binding; conditions: 10 μM; % of kinase remaining bound to bead-bound ligand
[4] = Microsome stability, mouse liver microsomes; conditions: mouse liver microsomes; third value of h/r/m
FLT3 (D835H) = FLT3 (D835H) (Homo sapiens, UniProt P36888, D835H); experiment: KINOMEscan kinase binding; conditions: 10 μM; % of kinase remaining bound to bead-bound ligand
CK1δ [5] = biological target: T2, CK1δ (Homo sapiens, UniProt P48730); experiment: Kinetic analysis; type: biochemical; conditions: ATP competitive
CSNK1D [CK1δ] = CSNK1D [CK1δ] (Homo sapiens, UniProt P48730); experiment: KINOMEscan kinase binding; conditions: 10 μM; % of kinase remaining bound to bead-bound ligand
NLK = NLK (Homo sapiens, UniProt Q9UBE8); experiment: KINOMEscan kinase binding; conditions: 10 μM; % of kinase remaining bound to bead-bound ligand
FLT3 (D835Y) = FLT3 (D835Y) (Homo sapiens, UniProt P36888, D835Y); experiment: KINOMEscan kinase binding; conditions: 10 μM; % of kinase remaining bound to bead-bound ligand
MAST1 = MAST1 (Homo sapiens, UniProt Q9Y2H9); experiment: KINOMEscan kinase binding; conditions: 10 μM; % of kinase remaining bound to bead-bound ligand
CSNK1E [CK1ε] = CSNK1E [CK1ε] (Homo sapiens, UniProt P49674); experiment: KINOMEscan kinase binding; conditions: 10 μM; % of kinase remaining bound to bead-bound ligand
ROCK2 = ROCK2 (Homo sapiens, UniProt O75116); experiment: KINOMEscan kinase binding; conditions: 10 μM; % of kinase remaining bound to bead-bound ligand
FLT3 (N841L) = experiment: KINOMEscan kinase binding; conditions: 10 μM; % of kinase remaining bound to bead-bound ligand
[6] = Microsome stability, human liver microsomes; conditions: human liver microsomes; first value of h/r/m
Solubility in PBS buffer = type: physicochemical
CK1δ [7] = biological target: T2, CK1δ; experiment: CK1δ inhibition, Reaction Biology Corp.; type: biochemical; conditions: read-out: IC50 CK1δ; data obtained by Reaction Biology Corp.
[8] = Microsome stability, rat liver microsomes; conditions: rat liver microsomes; second value of h/r/m
[9] = Solubility in DMEM/10% FBS; type: physicochemical

BMP2K, sequence (Q9NSY1 whole entry): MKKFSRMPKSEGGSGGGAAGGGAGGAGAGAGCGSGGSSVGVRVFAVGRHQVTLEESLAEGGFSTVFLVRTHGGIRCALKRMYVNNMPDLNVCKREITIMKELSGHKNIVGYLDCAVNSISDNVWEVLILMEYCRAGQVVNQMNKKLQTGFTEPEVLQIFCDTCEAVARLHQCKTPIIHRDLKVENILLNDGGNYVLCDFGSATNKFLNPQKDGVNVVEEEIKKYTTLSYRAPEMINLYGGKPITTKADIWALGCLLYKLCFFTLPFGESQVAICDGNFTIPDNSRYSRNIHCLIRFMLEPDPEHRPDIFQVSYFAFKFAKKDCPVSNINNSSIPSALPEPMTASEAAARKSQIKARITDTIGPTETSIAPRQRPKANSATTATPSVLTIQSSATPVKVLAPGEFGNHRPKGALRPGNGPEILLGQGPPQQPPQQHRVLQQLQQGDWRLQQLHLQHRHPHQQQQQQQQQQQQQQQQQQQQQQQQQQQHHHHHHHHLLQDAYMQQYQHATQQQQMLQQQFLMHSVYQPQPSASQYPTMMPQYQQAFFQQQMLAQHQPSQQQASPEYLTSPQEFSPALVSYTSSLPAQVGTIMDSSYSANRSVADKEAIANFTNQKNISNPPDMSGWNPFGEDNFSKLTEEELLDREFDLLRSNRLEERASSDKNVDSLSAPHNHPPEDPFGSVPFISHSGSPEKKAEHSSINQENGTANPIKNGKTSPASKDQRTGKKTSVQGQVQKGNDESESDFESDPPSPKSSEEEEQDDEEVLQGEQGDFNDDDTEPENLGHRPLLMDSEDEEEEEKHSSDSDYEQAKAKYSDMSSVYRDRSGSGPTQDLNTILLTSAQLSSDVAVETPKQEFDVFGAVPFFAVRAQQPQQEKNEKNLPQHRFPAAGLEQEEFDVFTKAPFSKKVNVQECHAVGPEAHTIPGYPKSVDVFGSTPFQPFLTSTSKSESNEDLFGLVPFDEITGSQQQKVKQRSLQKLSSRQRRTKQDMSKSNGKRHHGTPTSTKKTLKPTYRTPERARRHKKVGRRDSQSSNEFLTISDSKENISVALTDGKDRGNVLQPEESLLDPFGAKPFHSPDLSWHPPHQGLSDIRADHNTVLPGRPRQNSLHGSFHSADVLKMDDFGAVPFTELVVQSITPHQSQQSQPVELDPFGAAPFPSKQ
CSNK1A1L, sequence (Q8N752 whole entry): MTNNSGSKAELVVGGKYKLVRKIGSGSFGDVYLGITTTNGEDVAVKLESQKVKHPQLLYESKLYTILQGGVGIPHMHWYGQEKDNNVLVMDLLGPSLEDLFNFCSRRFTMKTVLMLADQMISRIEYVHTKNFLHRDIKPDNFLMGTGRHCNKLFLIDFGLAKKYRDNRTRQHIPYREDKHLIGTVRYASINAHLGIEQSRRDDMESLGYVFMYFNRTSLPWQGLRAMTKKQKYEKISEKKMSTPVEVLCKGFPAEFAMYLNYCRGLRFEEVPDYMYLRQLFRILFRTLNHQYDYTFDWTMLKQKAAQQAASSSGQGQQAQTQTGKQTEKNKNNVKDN
RIOK3, sequence (O14730 whole entry): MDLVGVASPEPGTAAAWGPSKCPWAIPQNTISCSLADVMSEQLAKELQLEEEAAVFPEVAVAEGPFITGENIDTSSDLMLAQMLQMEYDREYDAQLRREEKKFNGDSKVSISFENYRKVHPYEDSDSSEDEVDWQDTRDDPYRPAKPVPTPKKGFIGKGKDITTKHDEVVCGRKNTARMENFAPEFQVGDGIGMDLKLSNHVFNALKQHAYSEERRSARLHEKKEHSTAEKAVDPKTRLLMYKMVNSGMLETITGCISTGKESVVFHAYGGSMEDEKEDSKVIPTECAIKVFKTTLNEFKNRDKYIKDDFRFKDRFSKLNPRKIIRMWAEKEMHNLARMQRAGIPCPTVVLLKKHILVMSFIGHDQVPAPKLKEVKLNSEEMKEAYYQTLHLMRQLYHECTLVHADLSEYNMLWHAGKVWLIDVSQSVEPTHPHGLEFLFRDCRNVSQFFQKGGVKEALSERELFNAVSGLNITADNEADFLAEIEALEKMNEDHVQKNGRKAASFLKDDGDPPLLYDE
CDK7, sequence (P50613 whole entry): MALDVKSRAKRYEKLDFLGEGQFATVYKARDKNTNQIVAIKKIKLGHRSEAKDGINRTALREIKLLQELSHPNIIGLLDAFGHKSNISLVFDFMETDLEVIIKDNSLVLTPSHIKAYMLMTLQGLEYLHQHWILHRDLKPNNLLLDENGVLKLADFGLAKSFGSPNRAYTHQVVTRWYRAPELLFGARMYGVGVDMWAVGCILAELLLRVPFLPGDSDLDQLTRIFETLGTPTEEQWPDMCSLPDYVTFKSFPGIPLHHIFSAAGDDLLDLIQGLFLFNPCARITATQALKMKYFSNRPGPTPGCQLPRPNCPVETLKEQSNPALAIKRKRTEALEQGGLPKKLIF
CDK13, sequence (Q14004 whole entry): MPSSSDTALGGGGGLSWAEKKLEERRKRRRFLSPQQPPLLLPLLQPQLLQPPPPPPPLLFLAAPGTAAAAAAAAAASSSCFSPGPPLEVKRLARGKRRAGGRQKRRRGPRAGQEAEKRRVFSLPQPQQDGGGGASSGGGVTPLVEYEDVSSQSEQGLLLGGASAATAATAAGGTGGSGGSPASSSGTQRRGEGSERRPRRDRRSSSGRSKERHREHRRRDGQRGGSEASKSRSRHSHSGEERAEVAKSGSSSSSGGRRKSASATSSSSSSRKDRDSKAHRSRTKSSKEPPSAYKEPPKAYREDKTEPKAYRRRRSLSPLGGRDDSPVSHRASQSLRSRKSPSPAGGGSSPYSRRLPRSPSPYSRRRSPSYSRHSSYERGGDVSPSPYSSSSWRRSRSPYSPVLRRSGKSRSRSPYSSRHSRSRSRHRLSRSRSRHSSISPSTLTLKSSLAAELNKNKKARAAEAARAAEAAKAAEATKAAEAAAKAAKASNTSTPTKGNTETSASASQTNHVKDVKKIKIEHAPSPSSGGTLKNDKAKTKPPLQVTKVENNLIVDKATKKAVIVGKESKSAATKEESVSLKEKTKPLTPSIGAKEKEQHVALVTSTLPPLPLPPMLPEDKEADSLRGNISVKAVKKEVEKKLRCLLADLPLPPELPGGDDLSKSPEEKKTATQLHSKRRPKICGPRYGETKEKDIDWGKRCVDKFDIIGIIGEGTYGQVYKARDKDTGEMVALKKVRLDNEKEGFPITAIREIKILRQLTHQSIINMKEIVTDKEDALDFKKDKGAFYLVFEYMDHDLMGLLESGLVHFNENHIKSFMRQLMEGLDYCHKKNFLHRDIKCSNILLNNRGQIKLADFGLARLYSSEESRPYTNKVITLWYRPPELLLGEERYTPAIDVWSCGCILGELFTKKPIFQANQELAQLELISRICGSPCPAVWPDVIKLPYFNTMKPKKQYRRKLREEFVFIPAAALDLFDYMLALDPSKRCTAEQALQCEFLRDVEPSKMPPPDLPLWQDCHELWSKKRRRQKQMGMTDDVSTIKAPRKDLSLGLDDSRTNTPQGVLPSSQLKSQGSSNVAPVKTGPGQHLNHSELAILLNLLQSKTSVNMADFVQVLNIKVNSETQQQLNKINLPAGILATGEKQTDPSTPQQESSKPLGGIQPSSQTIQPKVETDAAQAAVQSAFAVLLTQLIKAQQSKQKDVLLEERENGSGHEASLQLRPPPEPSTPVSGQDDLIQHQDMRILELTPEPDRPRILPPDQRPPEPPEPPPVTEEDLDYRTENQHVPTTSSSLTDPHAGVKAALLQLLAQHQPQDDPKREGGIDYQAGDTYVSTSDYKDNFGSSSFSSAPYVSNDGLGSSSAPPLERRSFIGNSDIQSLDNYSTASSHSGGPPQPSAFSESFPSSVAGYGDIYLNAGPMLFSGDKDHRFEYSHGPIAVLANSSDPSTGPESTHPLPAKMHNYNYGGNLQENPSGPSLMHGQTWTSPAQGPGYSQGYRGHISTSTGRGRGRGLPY
T2 sequence (P48730 whole entry): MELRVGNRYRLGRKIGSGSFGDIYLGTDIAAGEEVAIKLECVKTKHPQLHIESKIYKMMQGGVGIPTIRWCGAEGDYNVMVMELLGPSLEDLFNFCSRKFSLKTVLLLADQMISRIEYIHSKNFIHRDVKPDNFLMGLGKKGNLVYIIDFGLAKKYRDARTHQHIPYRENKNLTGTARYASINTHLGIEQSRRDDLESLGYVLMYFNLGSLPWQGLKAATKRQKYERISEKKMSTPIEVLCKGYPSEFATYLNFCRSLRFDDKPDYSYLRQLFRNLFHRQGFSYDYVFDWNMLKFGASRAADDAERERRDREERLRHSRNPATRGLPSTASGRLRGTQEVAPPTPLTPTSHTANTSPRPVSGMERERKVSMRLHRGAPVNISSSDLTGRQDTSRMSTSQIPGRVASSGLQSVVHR
PRKCQ, sequence (Q04759 whole entry): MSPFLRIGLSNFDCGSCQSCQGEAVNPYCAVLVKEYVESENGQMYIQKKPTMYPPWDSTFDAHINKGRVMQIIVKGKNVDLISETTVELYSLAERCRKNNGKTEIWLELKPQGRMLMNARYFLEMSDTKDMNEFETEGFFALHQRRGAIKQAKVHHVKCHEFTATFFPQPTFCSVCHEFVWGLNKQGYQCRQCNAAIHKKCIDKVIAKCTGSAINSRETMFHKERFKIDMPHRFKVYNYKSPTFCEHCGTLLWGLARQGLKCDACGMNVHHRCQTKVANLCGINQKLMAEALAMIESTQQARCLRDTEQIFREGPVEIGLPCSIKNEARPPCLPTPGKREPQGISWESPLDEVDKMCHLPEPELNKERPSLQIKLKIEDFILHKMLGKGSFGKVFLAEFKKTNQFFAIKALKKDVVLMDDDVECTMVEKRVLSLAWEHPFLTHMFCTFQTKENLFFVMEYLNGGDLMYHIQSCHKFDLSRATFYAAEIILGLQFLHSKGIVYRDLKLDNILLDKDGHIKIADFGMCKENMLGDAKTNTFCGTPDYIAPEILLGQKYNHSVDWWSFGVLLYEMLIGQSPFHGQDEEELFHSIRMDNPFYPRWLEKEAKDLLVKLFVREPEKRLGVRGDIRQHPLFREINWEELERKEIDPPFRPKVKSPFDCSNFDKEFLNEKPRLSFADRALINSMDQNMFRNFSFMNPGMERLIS
CSNK1D [CK1δ], sequence (P48730 whole entry): as the sequence (P48730 whole entry) above

Compound | EC50 [1] [nM] | % control activity, PRKCQ (PRKCQ) [%] | % control activity, BMP2K (BMP2K) [%] | % control activity, LATS2 (LATS2) [%] | % control activity, FLT3 (FLT3 [2]) [%] | % control activity, FLT3 (ITD) (FLT3 (ITD)) [%] | % control activity, CDK7 (CDK7) [%] | % control activity, CDK13 (CDK13) [%] | % control activity, CSNK1A1L (CSNK1A1L) [%] | % control activity, RIOK3 (RIOK3) [%] | AUC (Mouse PK studies) [µM·h] | Cl (Mouse PK studies) [mL/min/kg] | Cmax (Mouse PK studies) [µM] | T1/2 (Mouse PK studies) [min] | % control activity, CDK4/cyclin D3 (CDK4/cyclin D3) [%] | % control activity, MARK2 (MARK2) [%] | % control activity, CDK4/cyclin D1 (CDK4/cyclin D1) [%] | IC50 (FLT3 [3]) [nM] | % control activity, CSNK1A1 (CSNK1A1) [%] | also measured
Fc1cccc(-n2cnc3c(NCc4nc5c(F)c(F)ccc5[nH]4)nc(N4CCOCC4)nc32)c1 [SR-3029] | 86 | 88 | 39 | 26 | 3.7 | 19 | 38 | 100 | 22 | 100 | 6.35 | 5.5 | 7.3 | 54 | 19 | 7.3 | 4.4 | 3000 | 22 | % control activity, FLT3 (K663Q) (FLT3 (K663Q)): 12%; % control activity, MELK (MELK): 22%; % control activity, TAOK3 (TAOK3): 34%; Number of off-target kinases inhibited ≥90% (442 kinases): 6
O=[N+]([O-])c1cccc2[nH]c(CNc3nc(N4CCOCC4)nc4c3ncn4-c3ccsc3)nc12 [SR-1277] | 22 | 100 | 6.2 | 100 | 3.4 | 3.7 | 72 | 1 | 9.6 | 9.6 | 1.26 | 2.8 | 1.2 | 85.2 | 56 | 100 | 56 | 305 | 63 | Microsome stability T1/2 (mouse) [4]: 2 min; % control activity, FLT3 (D835H) (FLT3 (D835H)): 7.3%; Ki (CK1δ [5]): 69 nM; % control activity, CSNK1D [CK1δ] (CSNK1D [CK1δ]): 4.2%; % control activity, NLK (NLK): 38%; % control activity, FLT3 (D835Y) (FLT3 (D835Y)): 11%; % control activity, MAST1 (MAST1): 100%; % control activity, CSNK1E [CK1ε] (CSNK1E [CK1ε]): 0.5%; % control activity, ROCK2 (ROCK2): 100%; % control activity, FLT3 (N841L) (FLT3 (N841L)): 11%; Microsome stability T1/2 (human) [6]: 7 min; Solubility (Solubility in PBS buffer): 1 µM (≈ 0.478 µg/mL); IC50 (CK1δ [7]): 49 nM; Microsome stability T1/2 (rat) [8]: 5 min; Solubility [9]: 1 µM (≈ 0.478 µg/mL)
